The test concerns the target T1, human CGT (Homo sapiens, UniProt Q16880).
T1 sequence (Q16880 21-541): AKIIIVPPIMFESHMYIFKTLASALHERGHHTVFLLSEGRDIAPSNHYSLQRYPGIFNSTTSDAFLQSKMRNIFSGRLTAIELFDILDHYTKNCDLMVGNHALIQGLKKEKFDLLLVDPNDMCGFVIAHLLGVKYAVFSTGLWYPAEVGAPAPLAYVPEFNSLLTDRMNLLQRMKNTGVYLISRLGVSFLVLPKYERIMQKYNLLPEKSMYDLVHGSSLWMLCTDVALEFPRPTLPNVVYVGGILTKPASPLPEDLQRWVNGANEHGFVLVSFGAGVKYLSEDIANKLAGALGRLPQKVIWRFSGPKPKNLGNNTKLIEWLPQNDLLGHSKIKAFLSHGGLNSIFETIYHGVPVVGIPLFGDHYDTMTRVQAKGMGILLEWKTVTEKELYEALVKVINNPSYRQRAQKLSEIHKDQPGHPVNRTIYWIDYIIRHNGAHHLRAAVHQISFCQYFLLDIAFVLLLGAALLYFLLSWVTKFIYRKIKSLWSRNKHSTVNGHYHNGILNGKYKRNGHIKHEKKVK
The test can be described thus: Assay 1: CGT Enzymatic Assay (RapidFire/MS/MS, 0.01% Tween 80). In kind it is biochemical. As to conditions: Table 1, Compounds of Formula (I) and Formula (II), CGT enzymatic assay, read-out: IC50.

The mark [1] stands for this setting: C6-NBD-dihydro-galactosylceramide readout.

Read-outs that look alike come from different tables or passages of the source.

In general, IC50 refers to the midpoint of a concentration-inhibition curve. Turning to `Cc1csc(-c2c(C)n(-c3ccc(Br)cc3)c(=O)n2-c2ccc(Br)cc2)c1` [Compound 266, 1,3-bis(4-bromophenyl)-4-methyl-5-(4-methylthiophen-2-yl)-1,3-dihydro-2H-imidazol-2-one], the IC50 was in the range of 1000 to 10000 nM. Turning to `CC(C)c1c(-c2ccccc2)n(-c2ccc(Br)cc2)c(=O)n1-c1ccc(Br)cc1` [Compound 267, 1,3-bis(4-bromophenyl)-4-isopropyl-5-phenyl-1,3-dihydro-2H-imidazol-2-one], the IC50 under setting [1] is under 1000 nM. The same measure, in the same setting: the value for `N#Cc1ccc(N2C(=O)N(c3ccc(Cl)cc3)C(O)(c3cccc(C#N)c3)C23CCC3)cc1` (stereo not drawn) [Compound 268, 3-(7-(4-chlorophenyl)-5-(4-cyanophenyl)-8-hydroxy-6-oxo-5,7-diazaspiro[3.4]octan-8-yl)benzonitrile] was under 1000 nM. As for `N#Cc1ccc(N2C(=O)N(c3ccc(Cl)cc3)C(O)(c3cccc(OC(F)(F)F)c3)C23CCC3)cc1` (stereo not drawn) [Compound 269, 4-(7-(4-chlorophenyl)-8-hydroxy-6-oxo-8-(3-(trifluoromethoxy)phenyl)-5,7-diazaspiro[3.4]octan-5-yl)benzonitrile], under setting [1], the IC50 is under 1000 nM. As to `Cc1ccc(N2C(=O)N(c3ccc(C#N)cc3)C(C)(C)C2(O)c2cccc(C#N)c2)cc1` (stereo not drawn) [Compound 270, 3-(1-(4-cyanophenyl)-4-hydroxy-5,5-dimethyl-2-oxo-3-(p-tolyl)imidazolidin-4-yl)benzonitrile], the IC50 under setting [1] is under 1000 nM. `CC(F)(F)c1cccc(C2(O)N(c3ccc(Cl)cc3)C(=O)N(c3ccc(Cl)cc3)C23COC3)c1` (stereo not drawn) [Compound 271, 5,7-bis(4-chlorophenyl)-8-(3-(1,1-difluoroethyl)phenyl)-8-hydroxy-2-oxa-5,7-diazaspiro[3.4]octan-6-one]: the IC50 under setting [1] is under 1000 nM.

For `O=C1N(c2ccc(Cl)cc2)C2(COC2)C(O)(c2cccc(OC(F)F)c2)N1c1ccc(Cl)cc1` (stereo not drawn) [Compound 272, 5,7-bis(4-chlorophenyl)-8-(3-(difluoromethoxy)phenyl)-8-hydroxy-2-oxa-5,7-diazaspiro[3.4]octan-6-one], the IC50 under setting [1] was under 1000 nM. Same read-out and setting: the value for `CC1(C)N(c2ccc(Cl)cc2)C(=O)N(c2ccc(C#N)cc2)C1(O)c1cccc(OC(F)(F)F)c1` (stereo not drawn) [Compound 273, 4-(3-(4-chlorophenyl)-5-hydroxy-4,4-dimethyl-2-oxo-5-(3-(trifluoromethoxy)phenyl)imidazolidin-1-yl)benzonitrile] was under 1000 nM.

As to `N#Cc1ccc(N2C(=O)N(c3ccc(Cl)cc3)C3(COC3)C2(O)c2cccc(OC(F)(F)F)c2)cc1` (stereo not drawn) [Compound 274, 4-(5-(4-chlorophenyl)-8-hydroxy-6-oxo-8-(3-(trifluoromethoxy)phenyl)-2-oxa-5,7-diazaspiro[3.4]octan-7-yl)benzonitrile], the IC50 under setting [1] was under 1000 nM. Consider `N#Cc1ccc(N2C(=O)N(c3ccc(C#N)cc3)C(O)(c3cccc(OC(F)(F)F)c3)C23COC3)cc1` (stereo not drawn) [Compound 275, 4,4′-(8-hydroxy-6-oxo-8-(3-(trifluoromethoxy)phenyl)-2-oxa-5,7-diazaspiro[3.4]octane-5,7-diyl)dibenzonitrile], for which, under setting [1], the IC50 was under 1000 nM. With `N#Cc1ccc(N2C(=O)N(c3ccc(Cl)cc3)C(O)(c3cccc(OC(F)(F)F)c3)C23COC3)cc1` (stereo not drawn) [Compound 276, 4-(7-(4-chlorophenyl)-8-hydroxy-6-oxo-8-(3-(trifluoromethoxy)phenyl)-2-oxa-5,7-diazaspiro[3.4]octan-5-yl)benzonitrile], the IC50 under setting [1] is under 1000 nM. Consider `Cc1ccc(N2C(=O)N(c3ccc(C#N)cc3)C3(COC3)C2(O)c2cccc(OC(F)(F)F)c2)cc1` (stereo not drawn) [Compound 277, 4-(8-hydroxy-6-oxo-7-(p-tolyl)-8-(3-(trifluoromethoxy)phenyl)-2-oxa-5,7-diazaspiro[3.4]octan-5-yl)benzonitrile], for which the IC50 under setting [1] is under 1000 nM. Consider `Cc1ccc(N2C(=O)N(c3ccc(C#N)cc3)C3(COC3)C2(O)c2cccc(C#N)c2)cc1` (stereo not drawn) [Compound 278, 3-(5-(4-cyanophenyl)-8-hydroxy-6-oxo-7-(p-tolyl)-2-oxa-5,7-diazaspiro[3.4]octan-8-yl)benzonitrile], for which the IC50 under setting [1] is under 1000 nM. On the same count and under the same terms, the value for `Cc1ccc(N2C(=O)N(c3ccc(C#N)cc3)C3(CCC3)C2(O)c2cccc(OC(F)(F)F)c2)cc1` (stereo not drawn) [Compound 279, 4-(8-hydroxy-6-oxo-7-(p-tolyl)-8-(3-(trifluoromethoxy)phenyl)-5,7-diazaspiro[3.4]octan-5-yl)benzonitrile] was under 1000 nM; that for `Cc1ccc(N2C(=O)N(c3ccc(C#N)cc3)C3(CCC3)C2(O)c2cccc(C#N)c2)cc1` (stereo not drawn) [Compound 280, 3-(5-(4-cyanophenyl)-8-hydroxy-6-oxo-7-(p-tolyl)-5,7-diazaspiro[3.4]octan-8-yl)benzonitrile] was under 1000 nM. As for `Cc1ccc(N2C(=O)N(c3ccc(C#N)cc3)C(O)(c3cccc(OC(F)(F)F)c3)C23CCC3)cc1` (stereo not drawn) [Compound 281, 4-(8-hydroxy-6-oxo-5-(p-tolyl)-8-(3-(trifluoromethoxy)phenyl)-5,7-diazaspiro[3.4]octan-7-yl)benzonitrile], the IC50 under setting [1] is under 1000 nM. Take `Cc1ccc(N2C(=O)N(c3ccc(C#N)cc3)C(O)(c3cccc(C#N)c3)C23CCC3)cc1` (stereo not drawn) [Compound 282, 3-(7-(4-cyanophenyl)-8-hydroxy-6-oxo-5-(p-tolyl)-5,7-diazaspiro[3.4]octan-8-yl)benzonitrile]: under setting [1], the IC50 is under 1000 nM. Take `Cc1ccc(N2C(=O)N(c3ccc(Cl)cc3)C(O)(c3cccc(C#N)c3)C23COC3)cc1` (stereo not drawn) [Compound 283, 3-(7-(4-chlorophenyl)-8-hydroxy-6-oxo-5-(p-tolyl)-2-oxa-5,7-diazaspiro[3.4]octan-8-yl)benzonitrile]: under setting [1], the IC50 is under 1000 nM.

For `Cc1ccc(N2C(=O)N(c3ccc(C)cc3)C(O)(c3cccc(OC(F)(F)F)c3)C23COC3)cc1` (stereo not drawn) [Compound 284, 8-hydroxy-5,7-di-p-tolyl-8-(3-(trifluoromethoxy)phenyl)-2-oxa-5,7-diazaspiro[3.4]octan-6-one], under setting [1], the IC50 was under 1000 nM. The same measure, in the same setting: the value for `Cc1ccc(N2C(=O)N(c3ccc(C)cc3)C(O)(c3cccc(C(F)F)c3)C23COC3)cc1` (stereo not drawn) [Compound 285, 8-(3-(difluoromethyl)phenyl)-8-hydroxy-5,7-di-p-tolyl-2-oxa-5,7-diazaspiro[3.4]octan-6-one] was under 1000 nM; that for `Cc1ccc(N2C(=O)N(c3ccc(C)cc3)C(O)(c3cccc(C(C)(F)F)c3)C23COC3)cc1` (stereo not drawn) [Compound 286, 8-(3-(1,1-difluoroethyl)phenyl)-8-hydroxy-5,7-di-p-tolyl-2-oxa-5,7-diazaspiro[3.4]octan-6-one] was under 1000 nM; that for `Cc1ccc(N2C(=O)N(c3ccc(C)cc3)C(O)(c3cccc(C#N)c3)C23COC3)cc1` (stereo not drawn) [Compound 287, 3-(8-hydroxy-6-oxo-5,7-di-p-tolyl-2-oxa-5,7-diazaspiro[3.4]octan-8-yl)benzonitrile] was under 1000 nM.

As to `N#Cc1ccc(N2C(=O)N(c3ccc(Cl)cc3)C3(CCC3)C2(O)c2cccc(OC(F)(F)F)c2)cc1` (stereo not drawn) [Compound 288, 4-(5-(4-chlorophenyl)-8-hydroxy-6-oxo-8-(3-(trifluoromethoxy)phenyl)-5,7-diazaspiro[3.4]octan-7-yl)benzonitrile], the IC50 under setting [1] was under 1000 nM. In the case of `N#Cc1ccc(N2C(=O)N(c3ccc(Cl)cc3)C3(CCC3)C2(O)c2cccc(C#N)c2)cc1` (stereo not drawn) [Compound 289, 3-(5-(4-chlorophenyl)-7-(4-cyanophenyl)-8-hydroxy-6-oxo-5,7-diazaspiro[3.4]octan-8-yl)benzonitrile], the IC50 under setting [1] was under 1000 nM. As to `Cc1ccc(N2C(=O)N(c3ccc(C)cc3)C(O)(c3cccc(OC(F)F)c3)C23COC3)cc1` (stereo not drawn) [Compound 290, 8-(3-(difluoromethoxy)phenyl)-8-hydroxy-5,7-di-p-tolyl-2-oxa-5,7-diazaspiro[3.4]octan-6-one], the IC50 under setting [1] was under 1000 nM. For the molecule `CCCC1(C)N(c2ccc(Cl)cc2)C(=O)N(c2ccc(Cl)cc2)C1(O)c1cccc(C#N)c1` (stereo not drawn) [Compound 291, 3-(1,3-bis(4-chlorophenyl)-4-hydroxy-5-methyl-2-oxo-5-propylimidazolidin-4-yl)benzonitrile], the IC50 under setting [1] is under 1000 nM. On to `N#Cc1ccc(N2C(=O)N(c3ccc(Br)cc3)C(O)(c3cccc(OC(F)(F)F)c3)C23CCC3)cc1` (stereo not drawn) [Compound 292, 4-(7-(4-bromophenyl)-8-hydroxy-6-oxo-8-(3-(trifluoromethoxy)phenyl)-5,7-diazaspiro[3.4]octan-5-yl)benzonitrile], for which the IC50 under setting [1] was under 1000 nM. On the same count and under the same terms, the value for `N#Cc1ccc(N2C(=O)N(c3ccc(C#N)cc3)C(O)(c3cccc(OC(F)(F)F)c3)C23CCC3)cc1` (stereo not drawn) [Compound 293, 4,4′-(8-hydroxy-6-oxo-8-(3-(trifluoromethoxy)phenyl)-5,7-diazaspiro[3.4]octane-5,7-diyl)dibenzonitrile] was under 1000 nM; that for `N#Cc1ccc(N2C(=O)N(c3ccc(C#N)cc3)C(O)(c3cccc(C#N)c3)C23CCC3)cc1` (stereo not drawn) [Compound 294, 4,4′-(8-(3-cyanophenyl)-8-hydroxy-6-oxo-5,7-diazaspiro[3.4]octane-5,7-diyl)dibenzonitrile] was under 1000 nM; that for `N#Cc1ccc(N2C(=O)N(c3ccc(Br)cc3)C(O)(c3cccc(C#N)c3)C23CCC3)cc1` (stereo not drawn) [Compound 295, 3-(7-(4-bromophenyl)-5-(4-cyanophenyl)-8-hydroxy-6-oxo-5,7-diazaspiro[3.4]octan-8-yl)benzonitrile] was under 1000 nM.

The values are drawn from US20190134005A1 (BioMarin Pharmaceutical Inc., priority 2016, published 2019).
